This is an account of results in patent US7709645B2, “Pyrrolo-pyridine kinase modulators” (SGX Pharmaceuticals, Inc., priority 2004, dated 2010).

The target in the assay is T1, MET kinase (Homo sapiens, UniProt P08581).
T1 construct: Sf9 insect cell culture expressing the kinase domain of human Met; 6x Histidine tag (TEV-cleavable) (cleaved yes); made in house; host or cells: Sf9 insect cells
Description: Met Bioassay (luminescence-based enzyme assay, Kinase-Glo). The format is biochemical. To be noted: 10 μM ATP. The source says: In addition to the c-Abl PK/LDH coupled assay (above), homogeneous luminescence-based inhibitor screening assays were developed for c-Abl, MET, AurA, and PDK1 kinases (among others). Each of these assays made use of an ATP depletion assay (Kinase-Glo™, Promega Corporation, Madison, Wis.) to quantitate kinase activity. The Kinase-Glo™ format uses a thermostable luciferase to generate luminescent signal from ATP remaining in solution following the kinase reaction. The luminescent signal is inversely correlated with the amount of kinase activity.
Materials: Poly Glu-Tyr (4:1) substrate (Sigma Cat# P-0275), ATP (Sigma Cat#A-3377, FW=551), HEPES buffer, pH 7.5, Bovine serum albumin (BSA) (Roche 92423420), MgCl2, Staurosporine (Streptomyces sp. Sigma Cat#85660-1MG), white Costar 384-well flat-bottom plate (VWR Cat#29444-088). MET kinase (see below), Kinase-Glo™ (Promega Cat#V6712).
Stock Solutions: 10 mg/ml poly Glu-Tyr in water, stored at −20° C.; 100 mM HEPES buffer, pH 7.5 (5 ml 1M stock+45 ml miliQH2O); 10 mM ATP (5.51 mg/ml in dH2O) stored at −20° C. (diluted 50 μl into total of 10 ml miliQH2O daily=50 μM ATP working stock); 1% BSA (1 g BSA in 100 ml 0.1M HEPES, pH 7.5, stored at −20° C.), 100 mM MgCl2; 200 μM Staurosporine, 2× Kinase-Glo™ reagent (made fresh or stored at −20° C.).
Standard Assay Setup for 384-well format (20 μl kinase reaction, 40 μl detection reaction): 10 mM MgCl2; 0.3 mg/ml poly Glu-Tyr; 0.1% BSA; 1 μl test compound (in DMSO); 0.4 μg/ml MET kinase; 10 μM ATP; 100 mM HEPES buffer. Positive controls contained DMSO with no test compound. Negative controls contained 10 μM staurosporine. The kinase reactions were initiated at time t=0 by the addition of ATP. Kinase reactions were incubated at 21° C. for 60 min, then 20 μl of Kinase-Glo™ reagent were added to each well to quench the kinase reaction and initiate the luminescence reaction. After a 20 min incubation at 21° C., the luminescence was detected in a plate-reading luminometer.
The cell pellets produced from half of a 12 L Sf9 insect cell culture expressing the kinase domain of human Met were resuspended in a buffer containing 50 mM Tris-HCl pH 7.7 and 250 mM NaCl, in a volume of approximately 40 ml per 1 L of original culture. One tablet of Roche Complete, EDTA-free protease inhibitor cocktail (Cat# 1873580) was added per 1 L of original culture. The suspension was stirred for 1 hour at 4° C. Debris was removed by centrifugation for 30 minutes at 39,800×g at 4° C. The supernatant was decanted into a 500 ml beaker and 10 ml of 50% slurry of Qiagen Ni-NTA Agarose (Cat# 30250) that had been pre-equilibrated in 50 mM Tris-HCl pH 7.8, 50 mM NaCl, 10% Glycerol, 10 mM Imidazole, and 10 mM Methionine, were added and stirred for 30 minutes at 4° C. The sample was then poured into a drip column at 4° C. and washed with 10 column volumes of 50 mM Tris-HCl pH 7.8, 500 mM NaCl, 10% Glycerol, 10 mM Imidazole, and 10 mM Methionine. The protein was eluted using a step gradient with two column volumes each of the same buffer containing 50 mM, 200 mM, and 500 mM Imidazole, sequentially. The 6× Histidine tag was cleaved overnight using 40 units of TEV protease (Invitrogen Cat#10127017) per 1 mg of protein while dialyzing in 50 mM Tris-HCl pH 7.8, 500 mM NaCl, 10% Glycerol, 10 mM Imidazole, and 10 mM Methionine at 4° C. The 6× Histidine tag was removed by passing the sample over a Pharmacia 5 ml IMAC column (Cat# 17-0409-01) charged with Nickel and equilibrated in 50 mM Tris-HCl pH 7.8, 500 mM NaCl, 10% Glycerol, 10 mM Imidazole, and 10 mM Methionine. The cleaved protein bound to the Nickel column at a low affinity and was eluted with a step gradient. The step gradient was run with 15% and then 80% of the B-side (A-side=50 mM Tris-HCl pH 7.8, 500 mM NaCl, 10% Glycerol, 10 mM Imidazole, and 10 mM Methionine; B-side=50 mM Tris-HCl pH 7.8, 500 mM NaCl, 10% Glycerol, 500 mM Imidazole, and 10 mM Methionine) for 4 column volumes each. […]
Background: In Kinase-Glo more light means more ATP remaining.

T1 sequence (P08581 1078-1345 limits assumed): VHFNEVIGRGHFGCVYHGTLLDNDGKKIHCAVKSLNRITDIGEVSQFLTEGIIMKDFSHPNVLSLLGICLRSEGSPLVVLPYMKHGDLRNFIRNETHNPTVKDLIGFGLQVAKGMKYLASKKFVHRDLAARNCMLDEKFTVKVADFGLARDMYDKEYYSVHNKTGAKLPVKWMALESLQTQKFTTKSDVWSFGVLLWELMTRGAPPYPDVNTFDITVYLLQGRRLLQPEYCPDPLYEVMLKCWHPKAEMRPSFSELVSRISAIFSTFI

In the case of `COc1ccc(-c2cnc3[nH]cc(-c4ccc(N)nc4)c3c2)cc1OC` [AE56], the IC50 is below 1000 nM. The result for `COCCNc1ccc(-c2c[nH]c3ncc(-c4ccc(OC)c(OC)c4)cc23)cn1` [AE57] reads 1000 to 5000 nM.

Usually IC50 stands for the point on the concentration scale where inhibition reaches its midpoint. Low readings indicate greater potency, high ones weaker potency.
